Data as given in US10766889B2, “Aryl-2,2′-tandem bisthiazole compound and preparation method and use thereof” (SHANGHAI INSTITUTE OF MATERIA MEDICA, CHINESE ACADEMY OF …, priority 2016, dated 2020).
Like-named read-outs stand apart in the source and are kept apart here. Blank lines part the entries; values can stand above or below the compound they belong to.

What was measured:
[1] = tested on: human multiple myeloma cell line RPMI 8226; assay: Cell level anti-tumor activity test, CCK-8, multiple myeloma cells; format: cell-based; details: RPMI-8226, 72 h
Method: According to the cell growth rate, the multiple myeloma cells in the logarithmic growth phase were inoculated into the 96-well culture plate at 100 μL/well, and then 1 μL/well of compound solution was added, and three replicate wells were set for each concentration, and the DMSO solvent control at corresponding concentration was also set.
CCK-8 staining method: after the drug was applied, 10 μL of CCK-8 solution was added to each well, and incubated at 37° C. for 3 h. The OD value at 450 nm and 690 nm was measured by microplate reader.
The inhibition rate (% Inhibiton) and activity (% Activity) of the test substance on the proliferation of multiple myeloma cells were calculated according to the following formula, wherein ODsample refers to the absorbance value of the administration hole (OD450-OD690). OD DMSO refers to the absorbance of the DMSO control well (OD450-OD690).
The logarithm of the concentration was plotted against the activity percentage (% Activity), and the fitted curve was calculated by nonlinear regression. The value of IC50 was calculated by using the GraphPad Prism5 software log(inhibitor) vs response—Variable slope parameter setting. Each set of experiments was repeated three times independently, while 3 replicate wells per concentration.

[2] = tested on: human myeloma RPMI 8226 NOD/SCID mouse xenografts; assay: Pharmacological experiment in human myeloma RPMI 8226 NOD/SCID mouse transplantation model; format: in vivo
Source text: The efficacy of compound H08 in an animal model of human multiple myeloma was investigated.
NOD/SCID mice, female, 5-6 weeks old, body weight 20±3 g, provided by Shanghai Lingchang Biotechnology Co., Ltd., production certificate number: SCXK (Shanghai) 2013-0018. Number of animals per group: 6. IACUC number: 2013-0007 (Nanmo).
Human myeloma RPMI 8226 cell line was preserved by Li Jia et al., Shanghai Institute of Materia Medica. The cell line was inoculated to the right axillary fossa of NOD/SCID mice, and the amount of cells inoculated was 1×10^7 cells each mouse. After the transplanted tumor was formed, it was used in NOD/SCID mice after 2 passages.
The tumor tissue in the vigorous growth period was cut into 1.5 mm^3, and inoculated subcutaneously in the right axilla of the NOD/SCID mice under aseptic conditions. The diameter of the transplanted tumor of NOD/SCID mice were measured with a vernier caliper and the animals were randomly grouped when the tumor growed up to 100-300 mm^3. The grouping scheme is shown in Table 5, and the solvent control group was given an equal amount of blank solvent. The diameter of the transplanted tumor was measured twice a week during the entire experiment, and the body weight of the mice was weighed as well. The tumor volume (TV) was calculated as: TV=½×a×b^2, wherein a and b represent length and width, respectively. The relative tumor volume (RTV) was calculated based on the measured results and the formula was: RTV=Vt/V0. Wherein V0 is the tumor volume measured before grouping and dosing (d0), and Vt is the tumor volume at each measurement.

[3] = Preliminary metabolic experiments, oral bioavailability in mice; details: mouse, in vivo
[4] = target: T1, human HDAC1 (Homo sapiens, UniProt Q13547); assay: Inhibition activity test of histone deacetylase 1 (fluorescence, Ac-Lys-Tyr-Lys(Ac)-AMC substrate); format: biochemical; details: mean of 3 experiments
T1 construct: made in house
Method: (§1) The inhibitory activity of the example compounds against human histone deacetylases 1, 3 and 6 (i.e., human HDAC1, HDAC3 and HDAC6) was tested.
(§2) Substrates: HDAC1, HDAC 3: Ac-Lys-Tyr-Lys (Ac)-AMC; HDAC6: Boc-lys (Ac)-AMC; all purchased from Shanghai Jill Biochemical Co., Ltd.
(§3) The activity of HDAC1 and HDAC3 was detected using Ac-Lys-Tyr-Lys(Ac)-AMC as substrate, and the activity of HDAC6 was detected using Boc-Lys(Ac)-AMC as substrate, and both were detected by fluorescence detection. […] The initial velocity of the reaction is calculated by detecting the change in the fluorescence signal over time.
(§4) The test compound, enzyme and reaction buffer were well mixed and the substrate was added to start the reaction. […]
(§5) The fluorescence signal intensity at 460 nm was measured, and then the activity percentage (% Activity) of each concentration groups of the sample was calculated. […]
(§6) The logarithm of the concentration was plotted against the percentage of activity, and then the nonlinear regression was used to calculate the fit curve. The value of IC50 was calculated by the software GraphPad Prism 5 formula log(inhibitor) vs. response—Variable slope.
(§7) Each of the above experiments was repeated 3 times, and there were more than 3 replicate wells for each experiment. The average IC50 value of the three experiments was determined as the final indicator of the compound inhibition ability.

[5] = target: T2, human HDAC3 (Homo sapiens, UniProt O15379); assay: Inhibition activity test of histone deacetylase 3 (fluorescence, Ac-Lys-Tyr-Lys(Ac)-AMC substrate); format: biochemical; details: mean of 3 experiments
T2 construct: made in house
Method: as §1, §2, §3, §4, §5, §6, §7

[6] = target: T3, human HDAC6 (Homo sapiens, UniProt Q9UBN7); assay: Inhibition activity test of histone deacetylase 6 (fluorescence, Boc-Lys(Ac)-AMC substrate); format: biochemical; details: mean of 3 experiments
T3 construct: made in house
T3 sequence (Q9UBN7 1-1215): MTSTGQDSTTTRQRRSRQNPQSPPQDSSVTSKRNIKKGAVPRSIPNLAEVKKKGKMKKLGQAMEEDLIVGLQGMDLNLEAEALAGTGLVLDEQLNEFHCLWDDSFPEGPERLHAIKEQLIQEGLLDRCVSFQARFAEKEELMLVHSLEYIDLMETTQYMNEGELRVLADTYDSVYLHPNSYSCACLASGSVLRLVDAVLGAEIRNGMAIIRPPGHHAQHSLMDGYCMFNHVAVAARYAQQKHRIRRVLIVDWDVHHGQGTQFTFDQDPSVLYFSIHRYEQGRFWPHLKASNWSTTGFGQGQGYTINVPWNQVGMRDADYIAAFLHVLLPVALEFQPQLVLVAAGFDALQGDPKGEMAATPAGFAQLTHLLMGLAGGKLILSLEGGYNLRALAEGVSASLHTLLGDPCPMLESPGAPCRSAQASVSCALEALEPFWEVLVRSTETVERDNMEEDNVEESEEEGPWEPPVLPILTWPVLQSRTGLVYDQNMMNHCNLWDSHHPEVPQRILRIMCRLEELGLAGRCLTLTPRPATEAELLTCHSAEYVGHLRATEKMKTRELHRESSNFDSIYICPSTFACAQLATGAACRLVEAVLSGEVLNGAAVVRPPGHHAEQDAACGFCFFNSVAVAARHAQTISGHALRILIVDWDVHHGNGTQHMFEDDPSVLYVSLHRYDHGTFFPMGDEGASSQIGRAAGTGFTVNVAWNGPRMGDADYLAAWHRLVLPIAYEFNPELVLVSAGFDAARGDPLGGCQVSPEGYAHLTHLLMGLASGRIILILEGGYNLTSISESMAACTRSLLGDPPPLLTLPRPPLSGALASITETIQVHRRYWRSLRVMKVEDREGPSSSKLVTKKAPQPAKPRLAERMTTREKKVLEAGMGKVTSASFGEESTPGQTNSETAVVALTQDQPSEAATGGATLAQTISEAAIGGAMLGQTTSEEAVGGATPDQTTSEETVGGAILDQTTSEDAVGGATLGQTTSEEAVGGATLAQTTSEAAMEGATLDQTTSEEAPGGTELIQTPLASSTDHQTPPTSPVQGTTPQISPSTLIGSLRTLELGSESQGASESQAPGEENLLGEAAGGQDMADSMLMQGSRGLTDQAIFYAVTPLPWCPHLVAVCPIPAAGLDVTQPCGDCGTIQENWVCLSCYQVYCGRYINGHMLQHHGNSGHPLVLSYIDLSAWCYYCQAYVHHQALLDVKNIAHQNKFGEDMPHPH
Method: as §1, §2, §3, §4, §5, §6, §7

[7] = background, subsequent studies on 201410136196.7 compounds; cited from earlier work
[8] = tested on: Liver cancer BEL-7404; assay: Tumor cell proliferation inhibition, SRB; format: cell-based; details: Homo sapiens, 72 h, read-out: IC50 (mean ± SD) Liver cancer BEL-7404
Method: (§8) After the drug was applied, 10 μL of CCK-8 solution was added to each well in Ramos, HL-60, Molt-4, Raji, CCRF-CEM, and SU-DHL-6 tumor cell line experiments, and incubated at 37° C. for 2 h. The OD value at 450 nm was measured by a microplate reader. […] After dried by convert placing in an oven, the plate was taken out and 100 μL of SRB solution (4 mg/mL SRB powder dissolved in 1% glacial acetic acid) was added into each well. After standed at room temperature for 15 minutes, it was washed five times with 1% glacial acetic acid to completely remove the SRB which has not bounded to the plate protein. After dried by convert placing in an oven, 150 μL of 10 mM Tris solution was added into each well, and the OD value at 560 nm was measured by a microplate reader.
(§9) The inhibition rate of tumor cell proliferation was calculated according to the following formula. The half-inhibition amount IC50 value was calculated by Log it method. Inhibition rate=(control group OD value−administration group OD value)/control group OD value×100%. Each set of experiments was repeated three times independently, while 3 replicate wells per concentration.

[9] = tested on: Lung Cancer A549; assay: Tumor cell proliferation inhibition, SRB; format: cell-based; details: Homo sapiens, 72 h, read-out: IC50 (mean ± SD) Lung Cancer A549
Method: The antitumor activity test of the example compounds was carried out, and the in vitro antitumor activities of the compounds were evaluated by measuring the growth inhibitory activities of the compounds against a plurality of human tumor cell lines.
Tumor cells (except MDA-MB-231) were routinely cultured under 37° C., 5% CO2.
According to the cell growth rate, the tumor cells in the logarithmic growth phase were inoculated into 96-well culture plates at 90 μL/well, and adherently grown for 24 h and then added with 10 μL/well, and each concentration was set to three replicate wells, and DMSO vehicle controls and cell-free wells at corresponding concentration were also set. Tumor cells (except MDA-MB-231) were cultured for 72 h under conditions of 37° C. and 5% CO2 (MDA-MB-231 cells were cultured at 37° C. without CO2). […] The OD value at 450 nm was measured by a microplate reader. […] After dried by convert placing in an oven, 150 μL of 10 mM Tris solution was added into each well, and the OD value at 560 nm was measured by a microplate reader.
The inhibition rate of tumor cell proliferation was calculated according to the following formula. The half-inhibition amount IC50 value was calculated by Log it method. […]

[10] = tested on: stomach cancer MKN-74; assay: Tumor cell proliferation inhibition, SRB; format: cell-based; details: Homo sapiens, 72 h, read-out: IC50 (mean ± SD) stomach cancer MKN-74
Method: as §8, §9

[11] = tested on: Embryonic lung cells MRC-5; assay: Cell proliferation inhibition, SRB; format: cell-based; details: Homo sapiens, MRC5, 72 h, read-out: IC50 (mean ± SD) Embryonic lung cells MRC-5
Method: as §8, §9

[12] = tested on: lymphoma Ramos; assay: Tumor cell proliferation inhibition, CCK-8; format: cell-based; details: Homo sapiens, 72 h, read-out: IC50 (mean ± SD) lymphoma Ramos
Method: as §8, §9

[13] = tested on: promyeloid leukemia HL60; assay: Tumor cell proliferation inhibition, CCK-8; format: cell-based; details: Homo sapiens, HL-60, 72 h, read-out: IC50 (mean ± SD) promyeloid leukemia HL60
Method: as §8, §9

[14] = tested on: Acute lymphoblastic leukemia MOLT-4; assay: Tumor cell proliferation inhibition, CCK-8; format: cell-based; details: Homo sapiens, 72 h, read-out: IC50 (mean ± SD) Acute lymphoblastic leukemia MOLT-4
Method: as §8, §9

[15] = tested on: Human blood lymphoma Raji; assay: Tumor cell proliferation inhibition, CCK-8; format: cell-based; details: 72 h, read-out: IC50 (mean ± SD) Human blood lymphoma Raji
Method: as §8, §9

[16] = tested on: Acute lymphocytic leukemia T lymphocyte CCRF; assay: Tumor cell proliferation inhibition, CCK-8; format: cell-based; details: Homo sapiens, 72 h, read-out: IC50 (mean ± SD) Acute lymphocytic leukemia T lymphocyte CCRF
Method: as §8, §9

[17] = tested on: Lung Cancer EBC-1; assay: Tumor cell proliferation inhibition, SRB; format: cell-based; details: Homo sapiens, EBC-1, 72 h, read-out: IC50 (mean ± SD) Lung Cancer EBC-1
[18] = tested on: tumor cell; details: WO2012152208, background; read-out: IC50 tumor cell proliferation inhibitory activity; cited from earlier work
[19] = read-out: IC50 (growth inhibition, RPMI 8226)
[20] = read-out: IC50 (proliferation of RPMI 8226)
[21] = 25 mg/kg, p.o., once/day, 3 weeks
[22] = 25 mg/kg, p.o., once/day, 3 weeks, d21
[23] = 50 mg/kg, p.o., once/day, 3 weeks
[24] = 50 mg/kg, p.o., once/day, 3 weeks, d21
[25] = 1 mg/kg, i.v., twice/week for 3 weeks
[26] = 1 mg/kg, i.v., twice/week for 3 weeks, d21
[27] = 100 mg/kg bid, p.o., 3 weeks, d21

T1 sequence (Q13547 whole entry): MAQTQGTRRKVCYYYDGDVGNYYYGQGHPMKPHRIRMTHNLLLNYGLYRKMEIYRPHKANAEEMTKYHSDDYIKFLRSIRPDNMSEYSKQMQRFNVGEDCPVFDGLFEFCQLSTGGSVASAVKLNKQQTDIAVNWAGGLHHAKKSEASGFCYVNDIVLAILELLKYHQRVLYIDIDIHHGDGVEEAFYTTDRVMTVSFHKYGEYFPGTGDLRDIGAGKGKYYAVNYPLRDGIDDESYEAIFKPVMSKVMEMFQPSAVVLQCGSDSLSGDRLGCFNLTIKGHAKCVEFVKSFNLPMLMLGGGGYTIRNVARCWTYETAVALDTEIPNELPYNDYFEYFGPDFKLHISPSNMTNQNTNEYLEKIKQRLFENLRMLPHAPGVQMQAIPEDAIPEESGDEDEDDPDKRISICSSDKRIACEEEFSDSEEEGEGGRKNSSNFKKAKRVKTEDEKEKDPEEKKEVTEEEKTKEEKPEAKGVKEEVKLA
T2 sequence (O15379 whole entry): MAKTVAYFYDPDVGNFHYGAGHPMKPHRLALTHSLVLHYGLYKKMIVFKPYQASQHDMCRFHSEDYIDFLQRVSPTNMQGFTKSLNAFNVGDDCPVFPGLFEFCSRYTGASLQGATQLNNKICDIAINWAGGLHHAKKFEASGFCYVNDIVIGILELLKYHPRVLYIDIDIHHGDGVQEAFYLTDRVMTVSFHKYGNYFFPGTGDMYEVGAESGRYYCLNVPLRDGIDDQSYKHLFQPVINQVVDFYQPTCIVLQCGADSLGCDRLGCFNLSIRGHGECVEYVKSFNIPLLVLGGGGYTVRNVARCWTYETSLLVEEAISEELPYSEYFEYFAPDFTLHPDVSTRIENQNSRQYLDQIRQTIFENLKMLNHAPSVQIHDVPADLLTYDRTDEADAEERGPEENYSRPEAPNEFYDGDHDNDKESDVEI

SMILES: C[C@H](NC(=O)c1nc(-c2nc3c(s2)CCCC3)sc1C1CC1)c1ccc(C(=O)NO)cc1 [Compound H07]
IC50 [1, 19]: 139 ± 19 nM

SMILES: O=C(NCCC(=O)C(F)(F)F)c1nc(-c2nccs2)sc1C1CC1 [GCJ403]
oral bioavailability [7]: 14.7%

SMILES: Cc1[nH]c2ccccc2c1CCNCc1ccc(/C=C/C(=O)NO)cc1 [LBH589, panobinostat]
IC50 [8]: 18.6 ± 1.51 nM | IC50 [9]: 48.9 ± 7.01 nM | IC50 [10]: 29.2 ± 0.97 nM | IC50 [11]: 76.9 ± 7.22 nM | IC50 [12]: 7.14 ± 0.42 nM | IC50 [13]: 12.3 ± 0.24 nM | IC50 [14]: 15 ± 8.18 nM | IC50 [15]: 12.3 ± 1.61 nM | IC50 [16]: 13.7 ± 0.93 nM

SMILES: CC(C)C[C@H](NC(=O)[C@H](Cc1ccccc1)NC(=O)c1cnccn1)B(O)O [PS341, Bortezomib, reference compound]
TV d0 (average ± SD) [2, 25]: 155 ± 48 mm^3 | body weight d0 [2, 25]: 21.9 ± 1.0 g | RTV (Average ± SD) [2, 26]: 7.19 ± 3.58 | T/C relative tumor growth rate [2, 26]: 45.27% | TV d21 (average ± SD) [2, 26]: 1,077 ± 538 mm^3 | body weight d21 [2, 26]: 23.3 ± 1.7 g

SMILES: O=C(CCCCCCC(=O)Nc1ccccc1)NO [SAHA, vorinostat]
IC50 [9]: 2910 ± 678 nM | IC50 [17]: 1550 ± 474 nM

SMILES: O=C(CCNC(=O)c1nc(-c2nccs2)sc1C1CC1)NO [bexanostat, reference compound]
IC50 [1, 19]: 690 ± 410 nM | TV d0 (average ± SD) ([2]; 100 mg/kg bid, p.o., 3 weeks): 155 ± 46 mm^3 | body weight d0 ([2]; 100 mg/kg bid, p.o., 3 weeks): 22.2 ± 1.4 g | RTV (Average ± SD) [2, 27]: 4.83 ± 0.51 | TV d21 (average ± SD) [2, 27]: 620 ± 87 mm^3 | body weight d21 [2, 27]: 19.8 ± 1.0 g | IC50 [18]: < 400 nM

The next lines start with results.

IC50 [1, 19]: 182 ± 15 nM
SMILES: CC(NC(=O)c1nc(-c2nccs2)sc1C1CC1)c1ccc(C(=O)NO)cc1 (stereo not shown) [Compound H01]

IC50 [1, 19]: 28 ± 10 nM
SMILES: C[C@H](NC(=O)c1nc(-c2nccs2)sc1C1CC1)c1ccc(C(=O)NO)cc1 [Compound H02]

IC50 [1, 19]: 123 ± 43 nM
SMILES: Cc1cnc(-c2nc(C(=O)N[C@@H](C)c3ccc(C(=O)NO)cc3)c(C3CC3)s2)s1 [Compound H05]

IC50 [1, 19]: 50 ± 22 nM
SMILES: Cc1csc(-c2nc(C(=O)N[C@@H](C)c3ccc(C(=O)NO)cc3)c(C3CC3)s2)n1 [Compound H06]

IC50 [1, 19]: 8 nM | IC50 [1, 20]: ~8 nM | bioavailability [3]: 34.4%
SMILES: C[C@H](NC(=O)c1nc(-c2ncc(-c3ccccc3)s2)sc1C1CC1)c1ccc(C(=O)NO)cc1 [Compound H08]
TV d0 (average ± SD) [2, 21]: 154 ± 44 mm^3 | body weight d0 [2, 21]: 22.1 ± 1.3 g | RTV (Average ± SD) [2, 22]: 8.40 ± 1.35 | TV d21 (average ± SD) [2, 22]: 1,279 ± 353 mm^3 | body weight d21 [2, 22]: 23.7 ± 0.8 g | TV d0 (average ± SD) [2, 23]: 154 ± 45 mm^3 | body weight d0 [2, 23]: 22.2 ± 1.1 g | RTV (Average ± SD) [2, 24]: 5.48 ± 2.99 | TV d21 (average ± SD) [2, 24]: 821 ± 406 mm^3 | body weight d21 [2, 24]: 22.7 ± 0.9 g | change in body weight of the mice during the experiment ([2]; oral 50 mg/kg for three weeks): no change in body weight

IC50 [1, 19]: 18 ± 6 nM
SMILES: C[C@H](NC(=O)c1nc(-c2ncc(-c3ccc(F)cc3)s2)sc1C1CC1)c1ccc(C(=O)NO)cc1 [Compound H09]

IC50 [1, 19]: 12 ± 4 nM
SMILES: COc1ccc(-c2cnc(-c3nc(C(=O)N[C@@H](C)c4ccc(C(=O)NO)cc4)c(C4CC4)s3)s2)cc1 [Compound H10]

IC50 [1, 19]: 326 ± 18 nM
SMILES: C[C@@H](NC(=O)c1nc(-c2ncc(-c3ccccc3)s2)sc1C1CC1)c1ccc(C(=O)NO)cc1 [Compound H11]

IC50 [4]: 6.71 ± 0.11 nM | IC50 [5]: 6.15 ± 0.25 nM | IC50 [6]: 9.78 ± 0.02 nM | IC50 [1, 19]: 8 nM | IC50 [1, 20]: ~8 nM
SMILES: O=C(NO)c1ccc(CNC(=O)c2nc(-c3ncc(-c4ccccc4)s3)sc2C2CC2)cc1 [Compound H12]
